{"source": "patent US6525079B2", "about": "“Anti-parasitic heterocycle compounds, agents, formulations, and methods of use thereof” (Pfizer Inc., priority 1998, dated 2003)", "key": {"[1]": {"system": "Adult flies (Stomoxys calcitrans)", "test": "Test for insecticidal activity: topical application to adult flies, mortality after 24 hours", "type": "in vivo", "details": "1 μl acetone solution applied to thorax of fly; mortality assessed 24 hours after dosing", "experimental": "Test for Insecticidal Activity Adult flies (Stomoxys calcitrans) are collected and anaesthetized using CO2- 1 μl of an acetone solution containing the test substance is applied directly to the thorax of the fly. The flies are then placed carefully into a 50 ml tube covered with damp gauze to recover from the CO2. Negative controls have 1 μl of acetone dispensed onto them. Mortality is assessed 24 hours after dosing. The table below illustrates the in vivo activity of a selection of the substances of the invention against such flies. Dosages required to produce 100% mortality are expressed in μg/fly."}, "[2]": {"system": "Boophilus microplus larvae", "test": "Test for acaricidal activity: treated filter paper envelope, larval mortality", "type": "in vivo", "details": "Rhipicephalus microplus, larvae exposed 48 hours at 25° C.; for mortality at 0.5 µg/cm2: dosage 0.5 μg/cm^2 on filter paper", "experimental": "Test for Acaricidal Activity\nA dose of 10 μg/cm^2 is created by evenly pipetting 0.5 ml of a 1 mg/ml solution of the test compound in a suitable solvent such as acetone or ethanol onto a Whatman No. 1 (Trade Mark) filter paper cut to a size of 8×6.25 cm. When dry, the paper is folded in half, sealed on two sides using a crimping device and placed in a Kilner jar containing a cotton wool pad dampened with water. The jar is then sealed and placed at 25° C. for 24 hours. Next, approximately 50 Boophilus microplus larvae are introduced into the treated paper envelope which is then crimped along the third side to effect a complete seal. The paper envelope is returned to the Kilner jar, which is sealed and placed at 25° C. for a further 48 hours. The papers are then removed and mortality assessed. Negative controls are provided by treating an appropriately cut filter paper with 0.5 ml of solvent only and following the same procedure. Activity at other doses is obtained by varying the concentration of the test solution. The table below illustrates the in vivo activity of a selection of the compounds of the invention against Boophilus microplus larvae. Dosages are expressed in μg/cm^2."}}}
{"smiles": "N#Cc1cn(-c2c(Cl)cc(C(F)(F)F)cc2Cl)cc1C1CC1(Br)Br", "note": "(centres unmarked) [Example 3, 3-Cyano-4-(2,2-dibromocyclopropyl)-1-(2,6-dichloro-4-trifluoromethylphenyl)pyrrole]", "values": [{"measurement": "Dosage required to produce 100% mortality", "setting": "[1]", "result": 0.005, "unit": "μg/fly"}, {"measurement": "mortality at 0.5 µg/cm2", "setting": "[2]", "result": 100, "unit": "%"}]}
{"smiles": "FC(F)(F)c1cc(Cl)c(-n2cc(C3CC3(Cl)Cl)nn2)c(Cl)c1", "note": "(centres unmarked) [Example 2, 4-(2,2-Dichlorocyclopropyl)-1-(2,6-dichloro-4-trifluoromethylphenyl)-1,2,3-triazole]", "values": [{"measurement": "Dosage required to produce 100% mortality", "setting": "[1]", "result": 0.01, "unit": "μg/fly"}, {"measurement": "mortality at 1 µg/cm2", "setting": "[2]; dosage 1 μg/cm^2 on filter paper", "result": 100, "unit": "%"}]}
{"smiles": "FC(F)(F)c1cc(Cl)c(-n2cnc(C3CC3(Br)Br)n2)c(Cl)c1", "note": "(centres unmarked) [Example 6, 3-(2,2-Dibromocyclopropyl)-1-(2,6-dichloro-4-trifluoromethylphenyl)-1,2,4-triazole]", "values": [{"measurement": "Dosage required to produce 100% mortality", "setting": "[1]", "result": 0.01, "unit": "μg/fly"}]}
{"smiles": "FC(F)(F)c1cc(Cl)c(-n2cc(C3CC3(Br)Br)nn2)c(Cl)c1", "note": "(centres unmarked) [Example 1, 4-(2,2-Dibromocyclopropyl)-1-(2,6-dichloro-4-trifluoromethylphenyl)-1,2,3-triazole]", "values": [{"measurement": "Dosage required to produce 100% mortality", "setting": "[1]", "result": 0.005, "unit": "μg/fly"}, {"measurement": "mortality at 0.5 µg/cm2", "setting": "[2]", "result": 90, "unit": "%"}]}
{"smiles": "FC(F)(F)c1cc(Cl)c(-n2cc(C3CC3(Br)Br)c3ccccc32)c(Cl)c1", "note": "(centres unmarked) [Example 4, 3-(2,2-Dibromocyclopropyl)-1-(2,6-dichloro-4-trifluoromethylphenyl)indole]", "values": [{"measurement": "Dosage required to produce 100% mortality", "setting": "[1]", "result": 0.05, "unit": "μg/fly"}]}
